Converted amounts (≈) assume the structure as drawn. Like-named read-outs stand apart in the source and are kept apart here.
Key:
MtbTMPK [1] = target: T1, MtbTMPK (Mycobacterium tuberculosis, UniProt P9WKE1); assay: MtbTMPK enzymatic assay (spectrophotometric coupled assay); format: biochemical; conditions: for MtbTMPK inhibitory potency, in words: qualitative statement, compared with 3
Experimental: The enzymatic assay was performed as previously reported on the recombinant purified MtbTMPK [14, 33]. As described by Blondin et al., compounds were evaluated by a serial dilution method using the spectrophotometric assay at fixed concentrations of adenosine triphosphate (ATP) (0.5 mM) and thymidine monophosphate (dTMP; 0.05 mM). The reaction medium includes 50-mM Tris-HCl; pH 7.4; 50-mM KCl; 2-mM MgCl2; 0.2-mM nicotinamide adenine dinucleotide (NADH); 1-mM phosphoenol pyruvate and 2 units each of coupling enzymes (lactate dehydrogenase, pyruvate kinase and nucleoside diphosphate kinase). From the experimental data, the IC50 value was calculated using KaleidaGraph 4.5.3.

[2] = test system: M. tuberculosis H37Rv (ATCC 27294); assay: In vitro antituberculosis assay (MIC, broth microdilution); format: cell-based, Mycobacterium tuberculosis; conditions: for MIC: read-out: MIC (H37Rv)
[3] = In vitro cytotoxicity assay on MRC-5 fibroblasts; format: cell-based; conditions: human
Experimental: (§1) The cytotoxicity of compounds on MRC-5 fibroblasts was performed exactly as previously reported.

MRC-5 fibroblasts = assay: In vitro cytotoxicity assay on MRC-5 fibroblasts; format: cell-based; conditions: for SI (selectivity index): IC50 (MRC-5)/MIC (H37Rv)
Experimental: as §1

MtbTMPK [4] = target: T1, MtbTMPK; parameters: method as in PMID 29510037, PMID 27614917
[5] = test system: M. tuberculosis H37Rv (ATCC 27294); conditions: previously reported values; cited from earlier work
[6] = ATP 0.5 mM, dTMP 0.05 mM, mean ± SD of at least two measurements, NI: no inhibition at a concentration of 0.2 mM, read-out: IC50 (MtbTMPK)
[7] = cytotoxicity against MRC-5 fibroblasts, read-out: IC50 (MRC-5)
[8] = Mycobacterium tuberculosis, minimum concentration required to inhibit >99% growth of M. tuberculosis H37Rv in liquid culture, 7–14 days

T1 sequence (P9WKE1 whole entry, looked up): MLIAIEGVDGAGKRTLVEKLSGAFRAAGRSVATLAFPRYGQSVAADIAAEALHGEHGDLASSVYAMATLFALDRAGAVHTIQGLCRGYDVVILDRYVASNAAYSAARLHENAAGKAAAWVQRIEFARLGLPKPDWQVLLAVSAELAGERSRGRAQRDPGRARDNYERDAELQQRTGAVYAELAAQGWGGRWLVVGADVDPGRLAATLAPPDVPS

Compound	IC50 (MtbTMPK [1]; [6]) [µM]	MtbTMPK inhibitory potency, in words (MtbTMPK [1])	MIC ([2]; Mycobacterium tuberculosis) [µM]	IC50 [3, 7] [µM]	SI (selectivity index) (MRC-5 fibroblasts)	other results
Cc1cn(C2CCN(CCc3ccc(Oc4ccccc4)cc3)CC2)c(=O)[nH]c1=O [Compound 21e, 5-Methyl-1-(1-(4-phenoxyphenethyl)piperidin-4-yl)pyrimidine-2,4(1H,3H)-dione]	160 ± 22	negative effect on the inhibitory activity	> 50	> 64		
Cc1cn(C2CCN(CCc3cccc(Oc4ccccc4)c3)CC2)c(=O)[nH]c1=O [Compound 3, reference compound]	17 ± 2		37 (≈ 15 µg/mL)	> 64	>1.73	IC50 (MtbTMPK [4]; previously reported values; read-out: IC50 (MtbTMPK), reported; cited from earlier work): 11 µM; MIC (H37Rv), reported [5]: 37 µM (≈ 15 µg/mL)
Cc1cn(C2CCN(CCc3ccccc3)CC2)c(=O)[nH]c1=O [Compound 21a, 5-Methyl-1-(1-phenethylpiperidin-4-yl)pyrimidine-2,4(1H,3H)-dione]	680 ± 90		> 50	> 64		loss/decrease in MtbTMPK inhibitory potency relative to 3 (MtbTMPK [1]; compared with compound 3): 40 fold
Cc1cn(C2CCN(CCc3cccc(Oc4ccc(C#N)cc4)c3)CC2)c(=O)[nH]c1=O [Compound 21k, 4-(3-(2-(4-(5-Methyl-2,4-dioxo-3,4-dihydropyrimidin-1(2H)-yl)piperidin-1-yl)ethyl)phenoxy)benzonitrile]	126 ± 10	significant drop in MtbTMPK inhibitory potency	≥ 50	> 64		
Cc1ccc(Oc2cccc(CCN3CCC(n4cc(C)c(=O)[nH]c4=O)CC3)c2)cc1 [Compound 21f, 5-Methyl-1-(1-(3-(p-tolyloxy)phenethyl)piperidin-4-yl)pyrimidine-2,4(1H,3H)-dione]	49 ± 7		19 (≈ 7.97 µg/mL)	8.42	0.44	
Cc1cn(C2CCN(CCc3cccc(OCc4cccc(Cl)c4)c3)CC2)c(=O)[nH]c1=O [Compound 21q, 1-(1-(3-((3-Chlorobenzyl)oxy)phenethyl)piperidin-4-yl)-5-methylpyrimidine-2,4(1H,3H)-dione]	44 ± 2		25 (≈ 11.3 µg/mL)	19.8	0.79	
COc1ccc(Oc2cccc(CCN3CCC(n4cc(C)c(=O)[nH]c4=O)CC3)c2)cc1 [Compound 21i, 1-(1-(3-(4-Methoxyphenoxy)phenethyl)piperidin-4-yl)-5-methylpyrimidine-2,4(1H,3H)-dione]	34 ± 5		25 (≈ 10.9 µg/mL)	> 64	>2.56	
Cc1cn(C2CCCN(Cc3cccc(Oc4ccccc4)c3)C2)c(=O)[nH]c1=O (centres unmarked) [Compound 1]						IC50 (MtbTMPK [4]; read-out: IC50 (MtbTMPK), reported; previously reported values; cited from earlier work): 21 µM
c1ccc(Oc2cccc(CCN3CCC(c4ccccc4)CC3)c2)cc1 [Compound 27, 1-(3-Phenoxyphenethyl)-4-phenylpiperidine]		complete loss of the inhibitory potency			1.29	IC50 (MtbTMPK [1]; read-out: IC50 (MtbTMPK), ATP 0.5 mM, dTMP 0.05 mM, mean ± SD of at least two measurements, NI: no inhibition at a concentration of 0.2 mM): > 200 µM; MIC [2, 8]: 6.25 µM (≈ 2.23 µg/mL); antimycobacterial activity (H37Rv), in words ([2]; qualitative statement): potent antimycobacterial activity; IC50 [3]: 8.06 µM; cytotoxicity (MRC-5), in words (MRC-5 fibroblasts; qualitative statement, relative to antimycobacterial activity): equipotent cytotoxicity
1-(1-(3-((3,4-Dichlorobenzyl)oxy)phenethyl)piperidin-4-yl)-5-methylpyrimidine-2,4(1H,3H)-dione [Compound 21p]						MIC ([2]; minimum concentration required to inhibit >99% growth of M. tuberculosis H37Rv in liquid culture, 7–14 days): 12.5 µM; IC50 (MRC-5 fibroblasts; cytotoxicity against MRC-5 fibroblasts): 4.22 µM
Cc1cn(C2CCN(CCc3ccc(-c4ccccc4)cc3)CC2)c(=O)[nH]c1=O [Compound 21b, 1-(1-(2-([1,1’-Biphenyl]-4-yl)ethyl)piperidin-4-yl)-5-methylpyrimidine-2,4(1H,3H)-dione]	> 200	complete loss of enzyme inhibitory potency	> 50	22.2		
Cc1cn(C2CCN(CCc3cccc(OCc4ccccc4Cl)c3)CC2)c(=O)[nH]c1=O [Compound 21o, 1-(1-(3-((2-Chlorobenzyl)oxy)phenethyl)piperidin-4-yl)-5-methylpyrimidine-2,4(1H,3H)-dione]	70 ± 9		19 (≈ 8.63 µg/mL)	7.08	0.37	
Cc1cn(C2CCN(CCc3ccccc3Oc3ccccc3)CC2)c(=O)[nH]c1=O [Compound 21c, 5-Methyl-1-(1-(2-phenoxyphenethyl)piperidin-4-yl)pyrimidine-2,4(1H,3H)-dione]	100 ± 15	negative effect on the inhibitory activity	50 (≈ 20.3 µg/mL)	26.8	0.54	
Cc1cn(C2CCN(CCc3cccc(Oc4ccc(Cl)c(Cl)c4)c3)CC2)c(=O)[nH]c1=O [Compound 21g, 1-(1-(3-(3,4-Dichlorophenoxy)phenethyl)piperidin-4-yl)-5-methylpyrimidine-2,4(1H,3H)-dione]	45 ± 2		19 (≈ 9.01 µg/mL)	5.66	0.30	
Cc1cn(C2CCN(C(=O)Cc3cccc(Oc4ccccc4)c3)CC2)c(=O)[nH]c1=O [Compound 26, 5-Methyl-1-(1-(2-(3-phenoxyphenyl)acetyl)piperidin-4-yl)pyrimidine-2,4(1H,3H)-dione]		weak enzyme inhibition				IC50 (MtbTMPK [1]): 230 ± 63 µM; MIC [2, 8]: > 50 µM; IC50 [3]: > 64 µM
Cc1cn(C2CCN(CCc3cccc(Oc4ccc(C(F)(F)F)cc4)c3)CC2)c(=O)[nH]c1=O [Compound 21m, 5-Methyl-1-(1-(3-(4-(trifluoromethyl)phenoxy)phenethyl)piperidin-4-yl)pyrimidine-2,4(1H,3H)-dione]	135 ± 22	significant drop in MtbTMPK inhibitory potency	37 (≈ 17.5 µg/mL)	> 64	>1.73	
Cc1cn(C2CCN(CCc3cccc(Oc4ccc([N+](=O)[O-])cc4)c3)CC2)c(=O)[nH]c1=O [Compound 21l, 5-Methyl-1-(1-(3-(4-nitrophenoxy)phenethyl)piperidin-4-yl)pyrimidine-2,4(1H,3H)-dione]	91 ± 10	significant drop in MtbTMPK inhibitory potency	37 (≈ 16.7 µg/mL)	> 64	>1.73	
Cc1cn(C2CCN(CCc3cccc(Oc4ccc(Cl)cc4)c3)CC2)c(=O)[nH]c1=O [Compound 21h, 1-(1-(3-(4-Chlorophenoxy)phenethyl)piperidin-4-yl)-5-methylpyrimidine-2,4(1H,3H)-dione]	49 ± 8		12.5 (≈ 5.5 µg/mL)	5.81	0.46	increase in IC50-value (MtbTMPK) relative to 21j (MtbTMPK [1]; compared with isomer 21j): 10 fold
Cc1cn(C2CCCN(CCc3cccc(Oc4ccccc4)c3)C2)c(=O)[nH]c1=O (centres unmarked) [Compound 23, 5-Methyl-1-(1-(3-phenoxyphenethyl)piperidin-3-yl)pyrimidine-2,4(1H,3H)-dione]						IC50 (MtbTMPK [1]): 192 ± 53 µM; loss/decrease in MtbTMPK inhibitory potency relative to 3 (MtbTMPK [1]; compared with compound 3): > 10 fold; MIC [2, 8]: > 50 µM; IC50 [3]: 21.8 µM
Cc1cn(C2CCN(CCc3cccc(Oc4cccc(Cl)c4)c3)CC2)c(=O)[nH]c1=O [Compound 21j, 1-(1-(3-(3-Chlorophenoxy)phenethyl)piperidin-4-yl)-5-methylpyrimidine-2,4(1H,3H)-dione]		significant improvement in the inhibitory potency	19 (≈ 8.36 µg/mL)	25.2	1.33	improvement of MtbTMPK inhibitory potency relative to 3 (MtbTMPK [1]; compared with compound 3): three; improvement of H37Rv growth inhibitory activity relative to 3 ([2]; compared with compound 3): two
